# From publication PMC10545732, “Structure-based drug discovery of a corticotropin-releasing hormone receptor 1 antagonist using an X-ray free-electron laser” (Experimental & Molecular Medicine, 2023)
# Entries after “also recorded” stand apart in the source; their conditions may differ.
# Columns and labels:
# [1] = Microsomal stability assay, rat liver microsomes; assay type: in vitro ADME; settings: 1 μM, n = 3
# Description: The incubation mixtures consisted of 0.5 mg/mL human (Corning, #452117) and rat liver microsomes (Corning, #452701), 0.1 M phosphate buffer (pH 7.4), NADPH regeneration system, and substrates (CRF1R antagonist compounds, 1 µM) in a total volume of 100 μL. […] LC‒MS/MS was performed on a TSQ Vantage (Thermo, USA) coupled with a Nexera XR LC system (Shimadzu, Japan)[32]. The separation was performed on a Kinetex C18 column (2.1 × 100 mm, 2.6 µm, Phenomenex, USA) using a mobile phase of 0.1% formic acid and acetonitrile containing 0.1% formic acid. A gradient program was used for elution at a flow rate of 0.3 mL/min. The data were acquired using multiple-reaction monitoring (MRM) in positive mode. Detection of the ions was performed by monitoring the m/z transition of 494.1 → 336.1 for BMK-I-152, 598.1 → 233.2 for BMK-C203, and 488.1 → 434.1 for BMK-C205.
# CYP1A2 = target: T1, CYP1A2 (Homo sapiens, UniProt P05177); assay: CYP inhibition assay CYP1A2 (phenacetin O-demethylase); assay type: in vitro ADME; settings: 10 μM, human liver microsomes, n = 3
# T1 construct: 0.25 mg/mL human liver microsomes; from tissue; host or cells: human liver microsomes
# T1 sequence (P05177 1-516): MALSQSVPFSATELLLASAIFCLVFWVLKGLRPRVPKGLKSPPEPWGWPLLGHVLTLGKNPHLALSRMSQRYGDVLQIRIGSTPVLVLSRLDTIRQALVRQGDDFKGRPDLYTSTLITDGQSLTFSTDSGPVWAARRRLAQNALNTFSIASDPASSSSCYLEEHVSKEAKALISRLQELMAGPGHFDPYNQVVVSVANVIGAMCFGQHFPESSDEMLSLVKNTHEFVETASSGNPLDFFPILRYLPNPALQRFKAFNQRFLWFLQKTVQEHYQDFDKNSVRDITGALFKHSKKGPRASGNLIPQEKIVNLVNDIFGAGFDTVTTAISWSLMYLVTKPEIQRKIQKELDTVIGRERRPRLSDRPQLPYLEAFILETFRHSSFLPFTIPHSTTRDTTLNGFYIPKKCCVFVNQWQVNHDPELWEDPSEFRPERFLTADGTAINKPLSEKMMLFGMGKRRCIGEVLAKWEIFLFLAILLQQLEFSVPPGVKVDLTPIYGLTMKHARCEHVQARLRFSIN
# Description: (§3) Phenacetin O-demethylase, diclofenac 4-hydroxylase, S-mephenytoin 4-hydroxylase, dextromethorphan O-demethylase, and midazolam 1’-hydroxylase activities were determined as probe activities for CYP1A2, CYP2C9, CYP2C19, CYP2D6, and CYP3A4, respectively, using cocktail incubation. […] The cocktail incubation mixtures consisted of 0.25 mg/mL human liver microsomes, 0.1 M phosphate buffer (pH 7.4), an NADPH regeneration system, and inhibitors (CRF1R antagonist compounds, 10 µM) in a total volume of 100 μL. The final volume of the organic solvents in the incubation mixture was 1% (v/v). […] All incubations were performed in triplicate, and the mean values were used for analysis. The samples were then centrifuged at 15,000 rpm for 5 min at 4 °C. […] The CYP-mediated activities in the presence of inhibitors were expressed as percentages of the corresponding control values.
# CYP2C9 = target: T2, CYP2C9 (Homo sapiens, UniProt P11712); assay: CYP inhibition assay CYP2C9 (diclofenac 4-hydroxylase); assay type: in vitro ADME; settings: 10 μM, human liver microsomes, n = 3
# T2 construct: 0.25 mg/mL human liver microsomes; from tissue; host or cells: human liver microsomes
# Description: as §3
# CYP2C19 = target: T3, CYP2C19 (Homo sapiens, UniProt P33261); assay: CYP inhibition assay CYP2C19 (S-mephenytoin 4-hydroxylase); assay type: in vitro ADME; settings: 10 μM, human liver microsomes, n = 3
# T3 construct: 0.25 mg/mL human liver microsomes; from tissue; host or cells: human liver microsomes
# Description: as §3
# C57BL/6J mice [2] = assay: Tail suspension test (TST); assay type: in vivo; settings: 30 mg/kg orally for 3 days, test 2 h after third dose, last 4 min of 6 min
# Description: (§1) C57BL/6J mice (male, 9–10 weeks old) were used for the behavioral tests. All mice were maintained under a 12:12-h light–dark cycle (lights on at 7:00 A.M.) with access to food and water ad libitum. Animal care and handling were performed according to guidelines by the Institutional Animal Care and Use Committee of Yonsei University (Seoul, Korea). Antalarmin, BMK-C203, and BMK-C205 were dissolved in peceol: TPGS: PEG400 (vehicle) (70%:20%:10%, respectively) and administered orally at a dose of 30 mg/kg for 3 days at 24-h intervals. All behavioral tests were conducted 2 h after the third drug was administered during light periods of the circadian cycle. TSTs were performed to verify the effect of CRF1R antagonists on depressive-like behavior. Each mouse was suspended by its tail on a bar 30 cm above the ground for 6 min using adhesive tape. Their movements were recorded by a camera and analyzed using the same parameters via EthoVision XT 8.5 software (Noldus Technologies). Immobility times during the last 4 min of the task were measured. Each mouse was placed in an open field (40 cm × 40 cm × 40 cm chamber) for 1 h to conduct an open field test (OFT) and test locomotion. Their locomotion was recorded and analyzed using EthoVision XT 8.5.
# C57BL/6J mice [3] = assay: Open field test (OFT); assay type: in vivo; settings: 30 mg/kg orally for 3 days, 1 h open field
# Description: as §1
# ACTH serum levels = assay: Serum ACTH level after TST (ELISA); assay type: in vivo, mice; settings: 30 mg/kg orally for 3 days, immediately after TST
# Description: (§2) The mice were anesthetized via intraperitoneal injections of 2,2,2-tribromoethanol (300 mg/kg, Sigma-Aldrich) immediately after the TST and before blood from the heart was sampled. Blood samples were collected in plastic tubes and incubated at room temperature for at least 2 h. The sera were extracted after centrifugation at 13,000×g for 10 min at 4 °C. CORT levels were determined via LC‒MS analysis. Serum (10 µL) was mixed with 20 μL of an internal standard solution (d4-cortisol) to prepare the samples. Subsequently, 100 μL of acetonitrile was added, and the mixture was centrifuged at 16,000×g for 10 min for protein precipitation. The supernatants (60 μL) were transferred into an autosampler vial, and 30 μL of water was added for efficient separation via high-performance liquid chromatography (HPLC). LC‒MS was performed with a triple quadrupole mass spectrometer coupled with HPLC using a C18 reversed-phase column. CORT levels were determined using a calibration curve constructed using CORT-spiked mouse serum. Serum samples (20 μL) were analyzed using a commercially available ELISA kit for ACTH (ab263880, Abcam) to measure ACTH serum levels.
# CORT serum levels = assay: Serum CORT level after TST (LC-MS); assay type: in vivo, mice; settings: 30 mg/kg orally for 3 days, immediately after TST
# Description: as §2
# CYP3A4 = CYP3A4 (Homo sapiens, UniProt P08684); assay: CYP inhibition assay CYP3A4 (midazolam 1'-hydroxylase); settings: 10 μM, human liver microsomes, n = 3
# CYP3A4, sequence (P08684 whole entry): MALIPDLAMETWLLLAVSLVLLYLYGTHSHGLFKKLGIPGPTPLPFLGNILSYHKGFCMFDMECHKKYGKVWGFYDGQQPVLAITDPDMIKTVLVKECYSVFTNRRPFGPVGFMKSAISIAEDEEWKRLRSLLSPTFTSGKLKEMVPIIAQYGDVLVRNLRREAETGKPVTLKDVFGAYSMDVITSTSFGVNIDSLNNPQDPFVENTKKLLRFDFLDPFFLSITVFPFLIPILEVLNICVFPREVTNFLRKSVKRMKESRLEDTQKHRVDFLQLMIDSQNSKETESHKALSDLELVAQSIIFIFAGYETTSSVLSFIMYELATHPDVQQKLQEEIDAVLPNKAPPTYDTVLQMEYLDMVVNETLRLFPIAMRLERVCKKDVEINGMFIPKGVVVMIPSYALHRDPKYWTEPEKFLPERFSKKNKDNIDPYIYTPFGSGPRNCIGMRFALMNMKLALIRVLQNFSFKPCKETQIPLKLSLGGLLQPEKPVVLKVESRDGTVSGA
# Description: as §3
# T2 sequence (P11712 whole entry): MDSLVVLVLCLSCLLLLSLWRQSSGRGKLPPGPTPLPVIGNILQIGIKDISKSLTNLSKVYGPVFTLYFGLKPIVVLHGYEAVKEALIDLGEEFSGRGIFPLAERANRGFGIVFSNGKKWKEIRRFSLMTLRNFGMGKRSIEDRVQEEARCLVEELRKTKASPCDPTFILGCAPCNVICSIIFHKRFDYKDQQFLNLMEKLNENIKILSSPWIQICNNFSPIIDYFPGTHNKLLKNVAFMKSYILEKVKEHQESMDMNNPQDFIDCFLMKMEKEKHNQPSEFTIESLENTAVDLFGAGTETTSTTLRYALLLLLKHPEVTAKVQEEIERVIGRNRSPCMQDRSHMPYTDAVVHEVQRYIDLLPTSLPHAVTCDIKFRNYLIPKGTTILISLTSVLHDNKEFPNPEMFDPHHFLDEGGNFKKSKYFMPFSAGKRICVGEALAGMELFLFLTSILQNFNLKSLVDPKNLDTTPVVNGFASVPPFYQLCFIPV
# T3 sequence (P33261 whole entry): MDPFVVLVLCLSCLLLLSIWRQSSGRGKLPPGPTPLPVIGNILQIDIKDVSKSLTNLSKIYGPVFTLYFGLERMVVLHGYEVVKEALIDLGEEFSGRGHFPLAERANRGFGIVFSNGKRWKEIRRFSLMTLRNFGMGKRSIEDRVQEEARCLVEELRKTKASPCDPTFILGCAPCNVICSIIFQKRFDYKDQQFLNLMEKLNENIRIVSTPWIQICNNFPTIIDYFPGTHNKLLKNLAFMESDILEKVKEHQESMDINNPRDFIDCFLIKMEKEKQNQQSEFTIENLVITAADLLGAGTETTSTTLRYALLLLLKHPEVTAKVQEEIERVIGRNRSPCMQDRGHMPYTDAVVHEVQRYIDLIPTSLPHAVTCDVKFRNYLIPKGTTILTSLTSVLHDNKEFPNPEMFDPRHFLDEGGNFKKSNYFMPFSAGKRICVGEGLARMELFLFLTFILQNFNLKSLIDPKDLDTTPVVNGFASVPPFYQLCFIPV
Structure (SMILES),"Liver microsomal stability, Rat (percentage remaining after 30 min) [1] [%]","CYP1A2, percentage of control activity (CYP1A2)","CYP2C9, percentage of control activity (CYP2C9)","CYP2C19, percentage of control activity (CYP2C19)",TST immobility time versus vehicle (C57BL/6J mice [2]),OFT locomotion / overall moving distance (C57BL/6J mice [3]),serum ACTH level versus vehicle (ACTH serum levels),serum CORT level versus vehicle (CORT serum levels),"CYP3A4, percentage of control activity (CYP3A4)"
COc1cc(Br)cc(OC)c1-c1c(C)nn2c(N(CCCC(F)(F)F)CCCC(F)(F)F)nc(C)nc12 [BMK-C203],97.1 ± 8.81,95.6 ± 2.9 percentage of control activity,94.9 ± 1.9 percentage of control activity,83.2 ± 0.5 percentage of control activity,did not significantly affect,did not differ among groups,decreased; also recorded: lower than those in the vehicle group; also recorded: significantly affected,did not significantly affect,90.5 ± 2.9 percentage of control activity
CCCCN(CC1CC1)c1nc(C)nc2c(-c3c(OC)cc(Br)cc3OC)c(C)nn12 [BMK-C205],89.4 ± 2.07,> 100 ± 4.2 percentage of control activity,89.8 ± 2.4 percentage of control activity,89.7 ± 3.8 percentage of control activity,significantly decreased; also recorded: more mobile than the vehicle group,did not differ among groups; also recorded: no differences,decreased; also recorded: lower than those in the vehicle group,decreased,> 100 ± 6.2 percentage of control activity
